Assay results published in paper PMC11882969 (Nature Communications, 2025).
Where “and” joins values, the source holds several entries; their conditions need not be identical. Equal entries are not always repeated.

Experiments:
[1] = target: T1, CB1 (rCB1) (Rattus norvegicus, UniProt P20272); test: Single-point radioligand displacement screen; assay type: binding
[2] = target: T2, hCB1 (Homo sapiens, UniProt P21554); test: Lance Ultra cAMP accumulation assay, CHO cells; assay type: cell-based; set-up: expressed in transfected cells; conditions: replicates, sheet FigureS2a;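 further: human CB1R stably expressed in CHO cells, ligands co-incubated with forskolin at room temperature, read-out is lowering of forskolin-stimulated cAMP accumulation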
T2 sequence (P21554 whole entry): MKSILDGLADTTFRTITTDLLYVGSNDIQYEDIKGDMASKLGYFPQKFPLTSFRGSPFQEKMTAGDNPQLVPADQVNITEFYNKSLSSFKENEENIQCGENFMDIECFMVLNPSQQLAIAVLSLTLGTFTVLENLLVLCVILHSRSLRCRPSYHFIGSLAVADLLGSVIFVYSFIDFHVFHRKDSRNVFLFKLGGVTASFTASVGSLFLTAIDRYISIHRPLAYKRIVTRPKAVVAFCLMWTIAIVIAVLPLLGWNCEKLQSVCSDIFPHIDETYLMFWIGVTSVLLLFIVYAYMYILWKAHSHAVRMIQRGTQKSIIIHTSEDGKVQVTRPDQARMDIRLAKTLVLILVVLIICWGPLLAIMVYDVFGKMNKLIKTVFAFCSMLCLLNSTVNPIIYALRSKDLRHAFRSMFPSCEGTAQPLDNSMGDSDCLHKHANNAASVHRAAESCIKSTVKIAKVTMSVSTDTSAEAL

[3] = target: T2, hCB1; test: bioSensAll ebBRET signaling profiling, hCB1; assay type: cell-based; set-up: host or cells: HEK293SL cells, transient PEI transfection; conditions: for Barr2+GRK2 hCB1 response: Barr2+GRK2 biosensor; for Gi1 hCB1 / GoB hCB1: single replicate values, FigS6a
[4] = target: T1, CB1 (rCB1); test: Radioligand competition binding, [3H]-CP-55,940, rat brain membranes

T1 sequence (P20272 whole entry): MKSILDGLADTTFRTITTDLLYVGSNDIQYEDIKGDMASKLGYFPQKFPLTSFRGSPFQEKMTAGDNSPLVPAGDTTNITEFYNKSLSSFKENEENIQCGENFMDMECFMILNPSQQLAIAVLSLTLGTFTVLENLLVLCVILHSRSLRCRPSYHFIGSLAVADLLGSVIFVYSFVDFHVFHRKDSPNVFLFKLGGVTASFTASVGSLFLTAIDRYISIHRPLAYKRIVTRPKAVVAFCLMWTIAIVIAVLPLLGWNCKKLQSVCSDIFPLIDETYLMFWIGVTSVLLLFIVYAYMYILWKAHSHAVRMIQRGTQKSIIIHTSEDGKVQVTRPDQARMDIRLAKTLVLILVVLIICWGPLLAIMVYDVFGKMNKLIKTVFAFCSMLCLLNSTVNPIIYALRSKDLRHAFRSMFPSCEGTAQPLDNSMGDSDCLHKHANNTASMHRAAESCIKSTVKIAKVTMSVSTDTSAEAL

`Cc1nc(CC2CC2)oc1-c1nc(Cc2cc3c(cc2Br)OCO3)no1` [‘7019] was tested, and the “% 1H-CP-55,940 displacement (mean) from single point screen” value ([1]; 10 µM, 1 µM or 300 nM by cell colour (not visible)) was 69.08%, the rep1_displacement ([1]; Figure 1c source data, replicate 1) was 67.1 and the rep2_displacement ([1]; Figure 1c source data, replicate 2) was 70.3. For the same compound, the rep3_displacement ([1]; Figure 1c source data, replicate 3) was 69.9, the “cAMP assay signal, concentration-response point” value (“cAMP assay signal” for short) ([2]; compound 0.01 nM) was 0.00339 and 0.00303 and 0.003953 and the “cAMP assay signal” value ([2]; compound 0.1 nM) was 0.003311 (2×) and 0.004082. For the same compound, the “cAMP assay signal” value ([2]; compound 1 nM) was 0.003289 and 0.004926 and 0.003401, the “cAMP assay signal” value ([2]; compound 10 nM) was 0.003247 and 0.002457 and 0.002907 and the “cAMP assay signal” value ([2]; compound 100 nM) was 0.002793 and 0.0025 and 0.003861. For the same compound, the “cAMP assay signal” value ([2]; compound 1000 nM) was 0.003175 and 0.003571 and 0.003759, the “cAMP assay signal” value ([2]; compound 10000 nM) was 0.00431 and 0.005952* and 0.003571 and the “cAMP assay signal” value ([2]; compound 100000 nM) was 0.0007716 and 0.001742 and 0.0006817. The “Barr2+GRK2 hCB1 response” value ([3]; Log [Compound] (M) -4.22186) was 62.2028, the “Barr2+GRK2 hCB1 response” value ([3]; Log [Compound] (M) -4.63927) was 5.727 and the “Barr2+GRK2 hCB1 response” value ([3]; Log [Compound] (M) -5.05788) was -5.441. The “Barr2+GRK2 hCB1 response” value ([3]; Log [Compound] (M) -5.47381) was -3.845, the “Barr2+GRK2 hCB1 response” value ([3]; Log [Compound] (M) -5.89285) was 30.2955 and the “Barr2+GRK2 hCB1 response” value ([3]; Log [Compound] (M) -6.31878) was 10.513. For the same compound, the “Barr2+GRK2 hCB1 response” value ([3]; Log [Compound] (M) -6.72585) was 12.1083, the “Barr2+GRK2 hCB1 response” value ([3]; Log [Compound] (M) -7.14267) was 9.875 and the “Barr2+GRK2 hCB1 response” value ([3]; Log [Compound] (M) -7.55284) was -7.674. The “Barr2+GRK2 hCB1 response” value ([3]; Log [Compound] (M) -8) was 3.174, the “Barr2+GRK2 hCB1 response” value ([3]; Log [Compound] (M) -8.22186) was 10.513 and the “Barr2+GRK2 hCB1 response” value ([3]; Log [Compound] (M) -8.39794) was 2.217. For the same compound, the “Barr2+GRK2 hCB1 response” value ([3]; Log [Compound] (M) -8.68787) was -30.0093, the “Barr2+GRK2 hCB1 response” value ([3]; Log [Compound] (M) -9.15521) was -44.3676 and the “Barr2+GRK2 hCB1 response” value ([3]; Log [Compound] (M) -9.61989) was -29.3712. The “Barr2+GRK2 hCB1 response” value ([3]; Log [Compound] (M) -10.0969) was -17.8845, the “Barr2+GRK2 hCB1 response” value ([3]; Log [Compound] (M) -10.5529) was -36.0717 and the “Barr2+GRK2 hCB1 response” value ([3]; Log [Compound] (M) -11.0177) was -47.2392. For the same compound, the “Barr2+GRK2 hCB1 response” value ([3]; Log [Compound] (M) -11.4949) was -38.6243, the “Barr2+GRK2 hCB1 response” value ([3]; Log [Compound] (M) -11.9208) was -22.6706 and the “Barr2+GRK2 hCB1 response” value ([3]; Log [Compound] (M) -12.3979) was -32.5619. The “Barr2+GRK2 hCB1 response” value ([3]; Log [Compound] (M) -12.8861) was -24.5851, the “Barr2+GRK2 hCB1 response” value ([3]; Log [Compound] (M) -13.3979) was -2.25 and the “Gi1 hCB1” value ([3]; Log [Compound] (M) -4.22186) was -7.329. For the same compound, the “GoB hCB1” value ([3]; Log [Compound] (M) -4.22186) was -13.0099, the “Gi1 hCB1” value ([3]; Log [Compound] (M) -4.63927) was -8.042 and the “GoB hCB1” value ([3]; Log [Compound] (M) -4.63927) was -13.6002. The “Gi1 hCB1” value ([3]; Log [Compound] (M) -5.05788) was -10.1639, the “GoB hCB1” value ([3]; Log [Compound] (M) -5.05788) was -11.5515 and the “Gi1 hCB1” value ([3]; Log [Compound] (M) -5.47381) was -10.5282. The “GoB hCB1” value ([3]; Log [Compound] (M) -5.47381) was -15.1627, the “Gi1 hCB1” value ([3]; Log [Compound] (M) -5.89285) was -9.467 and the “GoB hCB1” value ([3]; Log [Compound] (M) -5.89285) was -15.9787. For the same compound, the “Gi1 hCB1” value ([3]; Log [Compound] (M) -6.31878) was -6.569, the “GoB hCB1” value ([3]; Log [Compound] (M) -6.31878) was -12.489 and the “Gi1 hCB1” value ([3]; Log [Compound] (M) -6.72585) was -4.716. For the same compound, the “GoB hCB1” value ([3]; Log [Compound] (M) -6.72585) was -9.694, the “Gi1 hCB1” value ([3]; Log [Compound] (M) -7.14267) was 3.012 and the “GoB hCB1” value ([3]; Log [Compound] (M) -7.14267) was -8.531. For the same compound, the “Gi1 hCB1” value ([3]; Log [Compound] (M) -7.55284) was 0.08255, the “GoB hCB1” value ([3]; Log [Compound] (M) -7.55284) was -6.326 and the “Gi1 hCB1” value ([3]; Log [Compound] (M) -8) was 2.236. The “GoB hCB1” value ([3]; Log [Compound] (M) -8) was -8.913, the “Gi1 hCB1” value ([3]; Log [Compound] (M) -8.22186) was 3.4083 and the “GoB hCB1” value ([3]; Log [Compound] (M) -8.22186) was -2.3673. The “Gi1 hCB1” value ([3]; Log [Compound] (M) -8.39794) was 2.078, the “GoB hCB1” value ([3]; Log [Compound] (M) -8.39794) was -8.01 and the “Gi1 hCB1” value ([3]; Log [Compound] (M) -8.68787) was 0.1776. The “GoB hCB1” value ([3]; Log [Compound] (M) -8.68787) was -4.607, the “Gi1 hCB1” value ([3]; Log [Compound] (M) -9.15521) was -0.1708 and the “GoB hCB1” value ([3]; Log [Compound] (M) -9.15521) was -5.336. For the same compound, the “Gi1 hCB1” value ([3]; Log [Compound] (M) -9.61989) was 0.4151, the “GoB hCB1” value ([3]; Log [Compound] (M) -9.61989) was -6.256 and the “Gi1 hCB1” value ([3]; Log [Compound] (M) -10.0969) was -0.8202. The “GoB hCB1” value ([3]; Log [Compound] (M) -10.0969) was -5.6139, the “Gi1 hCB1” value ([3]; Log [Compound] (M) -10.5529) was 1.635 and the “GoB hCB1” value ([3]; Log [Compound] (M) -10.5529) was -5.77. The “Gi1 hCB1” value ([3]; Log [Compound] (M) -11.0177) was 0.2092, the “GoB hCB1” value ([3]; Log [Compound] (M) -11.0177) was -3.426 and the “Gi1 hCB1” value ([3]; Log [Compound] (M) -11.4949) was -0.7251. For the same compound, the “GoB hCB1” value ([3]; Log [Compound] (M) -11.4949) was -5.058, the “Gi1 hCB1” value ([3]; Log [Compound] (M) -11.9208) was -0.5034 and the “GoB hCB1” value ([3]; Log [Compound] (M) -11.9208) was -3.392. For the same compound, the “Gi1 hCB1” value ([3]; Log [Compound] (M) -12.3979) was 1.698, the “GoB hCB1” value ([3]; Log [Compound] (M) -12.3979) was -7.2806 and the “Gi1 hCB1” value ([3]; Log [Compound] (M) -12.8861) was 0.8586. For the same compound, the “GoB hCB1” value ([3]; Log [Compound] (M) -12.8861) was -4.763, the “Gi1 hCB1” value ([3]; Log [Compound] (M) -13) was 6.94 and the “GoB hCB1” value ([3]; Log [Compound] (M) -13) was -5.215. For the same compound, the “Gi1 hCB1” value ([3]; Log [Compound] (M) cell empty) was 3.028, the “GoB hCB1” value ([3]; Log [Compound] (M) cell empty) was -6.482 and the “radioligand binding remaining, competition curve (Figure2e), replicate values” (shortened to “radioligand binding remaining”) ([4]; log[drug] -3.643) was 14.0395 and 10.3537 and 12.7126. The “radioligand binding remaining” value ([4]; log[drug] -4.35655) was 11.9492 and 13.8721 and 12.5783, the “radioligand binding remaining” value ([4]; log[drug] -5.07) was 46.5819 and 49.8809 and 53.387 and the “radioligand binding remaining” value ([4]; log[drug] -5.783) was 89.8305 and 82.4446 and 90.6893. The “radioligand binding remaining” value ([4]; log[drug] -6.496) was 105.085 and 92.9907 and 91.4056, the “radioligand binding remaining” value ([4]; log[drug] -7.21) was 98.1356 and 103.28 and 99.3733 and the “radioligand binding remaining” value ([4]; log[drug] -7.923) was 89.0395 and 99.5785 and 100.597. For the same compound, the “radioligand binding remaining” value ([4]; log[drug] -8.636) was 97.4011 and 107.312 and 98.9257 and the “pKi [95% CI]” value ([4]; rCB1) was 5.39 [5.27 –5.52].
